The source of these data is US7863449B2, “Modulators of muscarinic receptors” (Vertex Pharmaceuticals Incorporated, priority 2004, dated 2011).

Experiment [1] concerns the target T1, M1 muscarinic receptor (Homo sapiens, UniProt P11229).
T1 construct: expressed in transfected cells; host or cells: CHO (M1-CHO)
T1 sequence (P11229 1-460): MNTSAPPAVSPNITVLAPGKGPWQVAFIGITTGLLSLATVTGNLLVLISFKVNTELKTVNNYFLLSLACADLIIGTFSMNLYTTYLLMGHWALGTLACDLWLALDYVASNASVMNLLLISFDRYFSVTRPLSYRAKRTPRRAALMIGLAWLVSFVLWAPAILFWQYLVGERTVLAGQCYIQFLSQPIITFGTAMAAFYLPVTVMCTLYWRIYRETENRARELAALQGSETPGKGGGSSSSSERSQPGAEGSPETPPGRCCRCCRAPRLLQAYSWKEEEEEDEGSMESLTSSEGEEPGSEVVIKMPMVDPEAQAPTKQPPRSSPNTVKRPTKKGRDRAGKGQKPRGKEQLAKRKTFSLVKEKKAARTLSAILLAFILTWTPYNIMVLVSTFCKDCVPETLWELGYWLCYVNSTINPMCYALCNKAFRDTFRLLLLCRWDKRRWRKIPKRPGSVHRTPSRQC
The experiment can be described thus: Functional mobilization of intracellular calcium (FLIPR), M1-CHO cells. Format: cell-based. Particulars: for Emax: 100% efficacy is the maximum response obtained using Carbachol as a control; for M1 Activity: M1-CHO cells, FLIPR calcium mobilization. An outline of the steps:
(§1)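 Calcium flux recorded 60 s (ex 488, em 540 nm) in dye-loaded M1- or M4-CHO cells in pH 7.4 buffer with 1 mM probenecid. Inhibition measured against carbachol EC80 after 15 min compound pre-incubation or co-addition; agonism measured by compound addition alone. Final DMSO 0.5%.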

Experiment [2] deals with T2, M4 muscarinic receptor (Homo sapiens, UniProt P08173).
T2 construct: expressed in transfected cells; host or cells: CHO (M4-CHO)
T2 sequence (P08173 1-479): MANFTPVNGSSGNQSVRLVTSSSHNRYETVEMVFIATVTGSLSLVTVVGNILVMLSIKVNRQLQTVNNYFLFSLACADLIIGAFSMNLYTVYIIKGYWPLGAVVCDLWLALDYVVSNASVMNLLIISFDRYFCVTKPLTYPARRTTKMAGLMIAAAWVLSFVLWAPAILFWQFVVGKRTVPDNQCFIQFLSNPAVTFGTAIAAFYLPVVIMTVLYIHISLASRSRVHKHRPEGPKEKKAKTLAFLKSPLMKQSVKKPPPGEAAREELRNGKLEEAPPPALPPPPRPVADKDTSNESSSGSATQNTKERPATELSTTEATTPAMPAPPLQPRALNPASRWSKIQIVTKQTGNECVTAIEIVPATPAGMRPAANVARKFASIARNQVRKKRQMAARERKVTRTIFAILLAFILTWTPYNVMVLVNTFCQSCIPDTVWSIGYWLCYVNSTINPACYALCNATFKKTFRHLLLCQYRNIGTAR
The experiment can be described thus: Functional mobilization of intracellular calcium (FLIPR), M4-CHO cells. Format: cell-based. The conditions noted are these: for Emax: 100% efficacy is the maximum response obtained using Carbachol as a control; for M4 Activity: M4-CHO cells, FLIPR calcium mobilization. In short, it runs like this:
as §1
(In general: Calcium flux is commonly read through the fluorescence of an indicator in the cells.)

Some results are limits rather than exact numbers.

Usually Emax stands for the size of the effect at its maximum, as opposed to the concentration needed. Take `CCOC(=O)N1CC[C@H](CN2CCC3(CC2)CN(C(C)=O)Cc2ccccc23)C1` [compound 320]: in experiment [1], the Emax lay within 25 to 100% and the “M1 Activity” value is on record as “+++ (activity was measured to be less than 1.0 μM)”. For the same compound, in experiment [2], the Emax lay in the range of 25 to 100% and the “M4 Activity” value is “+++ (activity was measured to be less than 1.0 μM)”.
In the case of `CCOC(=O)N1C2CCC1CC(N1CCC3(CC1)CN(C(=O)NC1CCCC1)Cc1ccccc13)C2` (stereo not drawn) [compound 321], in experiment [1], the Emax fell in the range of 25 to 100% and the “M1 Activity” value is recorded as “+++ (activity was measured to be less than 1.0 μM)”. In addition, in experiment [2], the Emax lay within 25 to 100% and the “M4 Activity” value is “+++ (activity was measured to be less than 1.0 μM)”.
As for `CC(=O)N1Cc2ccccc2C2(CCN(Cc3ccccc3C#N)CC2)C1` [compound 322], in experiment [1], the Emax is less than 25% and the “M1 Activity” value is on record as “+ (activity was measured to be greater than 5.0 μM)”. In addition, in experiment [2], the Emax was less than 25% and the “M4 Activity” value is “+ (activity was measured to be greater than 5.0 μM)”.
In the case of `CSC(C)CCN1CCC2(CC1)NC(=O)c1ccccc12` (stereo not drawn) [compound 323], in experiment [1], the Emax was less than 25% and the “M1 Activity” value is “+ (activity was measured to be greater than 5.0 μM)”. In experiment [2], the Emax was less than 25% and the “M4 Activity” value is “+ (activity was measured to be greater than 5.0 μM)”.
For the compound `CCOC(=O)N1C2CCC1CC(N1CCC3(CC1)CN(S(=O)(=O)c1cccc(F)c1)Cc1ccccc13)C2` (stereo not drawn) [compound 324], in experiment [1], the Emax lay in the range of 25 to 100% and the “M1 Activity” value was “+++ (activity was measured to be less than 1.0 μM)”. For the same compound, in experiment [2], the Emax fell in the range of 25 to 100% and the “M4 Activity” value is reported as “+++ (activity was measured to be less than 1.0 μM)”.
In the case of `CCCC1CCC(N2CCC3(CC2)CN(C(C)=O)Cc2ccccc23)CC1` (stereo not drawn) [compound 326], in experiment [1], the Emax lay in the range of 25 to 100% and the “M1 Activity” value is “+++ (activity was measured to be less than 1.0 μM)”. In addition, in experiment [2], the Emax fell in the range of 25 to 100% and the “M4 Activity” value is given as “+++ (activity was measured to be less than 1.0 μM)”.
With `CN(C)C(=O)N1Cc2ccccc2C2(CCN(C3CC4CCC(C3)N4C(=O)OC3CCC3)CC2)C1` (stereo not drawn) [compound 327], in experiment [1], the Emax is 25 to 100% and the “M1 Activity” value is recorded as “+++ (activity was measured to be less than 1.0 μM)”. In experiment [2], the Emax lay within 25 to 100% and the “M4 Activity” value is “+++ (activity was measured to be less than 1.0 μM)”.
Consider `CCOC(=O)N1CCC(N2CCC3(CC2)CN(C(=O)c2snnc2C)Cc2ccccc23)CC1` [compound 328], for which, in experiment [1], the Emax fell in the range of 25 to 100% and the “M1 Activity” value is “+++ (activity was measured to be less than 1.0 μM)”. Further, in experiment [2], the Emax lay within 25 to 100% and the “M4 Activity” value was “+++ (activity was measured to be less than 1.0 μM)”.
As to `CCOC(=O)N1CCC(CN2CCC3(CC2)CN(C(=O)c2cnon2)Cc2ccccc23)CC1` [compound 329], in experiment [1], the Emax lay in the range of 25 to 100% and the “M1 Activity” value is on record as “+++ (activity was measured to be less than 1.0 μM)”. In experiment [2], the Emax lay within 25 to 100% and the “M4 Activity” value is reported as “+++ (activity was measured to be less than 1.0 μM)”.
As to `CCOC(=O)N1CCC(CN2CCC3(CC2)CN(C(=O)c2ccccn2)Cc2ccccc23)CC1` [compound 330], in experiment [1], the Emax lay in the range of 25 to 100% and the “M1 Activity” value is “+++ (activity was measured to be less than 1.0 μM)”. Besides, in experiment [2], the Emax was in the range of 25 to 100% and the “M4 Activity” value is given as “+++ (activity was measured to be less than 1.0 μM)”.
With `CC(=O)N1Cc2ccccc2C2(CCN(Cc3cc(C)ccc3F)CC2)C1` [compound 331], in experiment [1], the Emax is less than 25% and the “M1 Activity” value is listed as “+ (activity was measured to be greater than 5.0 μM)”. Moreover, in experiment [2], the Emax was less than 25% and the “M4 Activity” value was “+ (activity was measured to be greater than 5.0 μM)”.
For `CC(=O)N1Cc2ccccc2C2(CCN(Cc3cccc(C)n3)CC2)C1` [compound 334], in experiment [1], the Emax is less than 25% and the “M1 Activity” value was “+ (activity was measured to be greater than 5.0 μM)”. Besides, in experiment [2], the Emax is less than 25% and the “M4 Activity” value is given as “+ (activity was measured to be greater than 5.0 μM)”.
For `CC(=O)N1Cc2ccccc2C2(CCN(Cc3ccc(C(C)O)cc3)CC2)C1` (stereo not drawn) [compound 335], in experiment [1], the Emax is less than 25% and the “M1 Activity” value is given as “+ (activity was measured to be greater than 5.0 μM)”. Further, in experiment [2], the Emax was less than 25% and the “M4 Activity” value is reported as “+ (activity was measured to be greater than 5.0 μM)”.
`CCOC(=O)N1CCC(N2CCC3(CC2)CN(S(=O)(=O)c2ccc(F)cc2)Cc2ccccc23)CC1` [compound 337]: in experiment [1], the Emax is 25 to 100% and the “M1 Activity” value is reported as “+++ (activity was measured to be less than 1.0 μM)”. In experiment [2], the Emax fell in the range of 25 to 100% and the “M4 Activity” value is on record as “+++ (activity was measured to be less than 1.0 μM)”.
Take `CCOC(=O)N1CCC(N2CCC3(CC2)CN(C(=O)Oc2ccc(F)cc2)Cc2ccccc23)CC1` [compound 342]: in experiment [1], the Emax was 25 to 100% and the “M1 Activity” value is on record as “+++ (activity was measured to be less than 1.0 μM)”. In experiment [2], the Emax fell in the range of 25 to 100% and the “M4 Activity” value is given as “+++ (activity was measured to be less than 1.0 μM)”.
Take `CCOC(=O)N1C2CCC1CC(N1CCC3(CC1)CN(C(=O)N1CCCCC1)Cc1ccccc13)C2` (stereo not drawn) [compound 344]: in experiment [1], the maximal response (Emax) was 25 to 100% and the “M1 Activity” value is recorded as “+++ (activity was measured to be less than 1.0 μM)”. In experiment [2], the Emax lay within 25 to 100% and the “M4 Activity” value is recorded as “+++ (activity was measured to be less than 1.0 μM)”.
Turning to `CCOC(=O)N1CCC(CN2CCC3(CC2)CN(S(=O)(=O)c2ccc(F)cc2)Cc2ccccc23)CC1` [compound 345], in experiment [1], the Emax was in the range of 25 to 100% and the “M1 Activity” value was “+++ (activity was measured to be less than 1.0 μM)”. Besides, in experiment [2], the Emax is 25 to 100% and the “M4 Activity” value was “+++ (activity was measured to be less than 1.0 μM)”.
With `CC(C)(C)CCN1CCC2(CC1)NC(=O)c1ccccc12` [compound 346], in experiment [1], the Emax lay within 25 to 100% and the “M1 Activity” value was “++ (activity was measured to be from 1.0 μM to 5.0 μM)”. In addition, in experiment [2], the Emax was 25 to 100% and the “M4 Activity” value was “++ (activity was measured to be from 1.0 μM to 5.0 μM)”.
On to `O=C1c2ccccc2C2(CCN(C3CCCCCC3)CC2)N1Cc1ccccc1` [compound 347], for which, in experiment [1], the Emax lay in the range of 25 to 100% and the “M1 Activity” value was “+ (activity was measured to be greater than 5.0 μM)”. Further, in experiment [2], the Emax is less than 25% and the “M4 Activity” value is on record as “+ (activity was measured to be greater than 5.0 μM)”.
Turning to `CC(=O)N1Cc2ccccc2C2(CCN(C3CC4CCC(C3)N4C(=O)OC3CCC3)CC2)C1` (stereo not drawn) [compound 348], in experiment [1], the Emax was 25 to 100% and the “M1 Activity” value is on record as “+++ (activity was measured to be less than 1.0 μM)”. Moreover, in experiment [2], the Emax is 25 to 100% and the “M4 Activity” value is given as “+++ (activity was measured to be less than 1.0 μM)”.
As to `CC(=O)N1Cc2ccccc2C2(CCN(C3CCCCCC3)CC2)C1` [compound 349], in experiment [1], the Emax fell in the range of 25 to 100% and the “M1 Activity” value was “+++ (activity was measured to be less than 1.0 μM)”. Also, in experiment [2], the Emax was 25 to 100% and the “M4 Activity” value is reported as “+++ (activity was measured to be less than 1.0 μM)”.
For `CCOC(=O)N1C2CCC1CC(N1CCC3(CC1)CN(C(=O)NC(C)C)Cc1ccccc13)C2` (stereo not drawn) [compound 350], in experiment [1], the Emax was 25 to 100% and the “M1 Activity” value was “+++ (activity was measured to be less than 1.0 μM)”. In addition, in experiment [2], the Emax fell in the range of 25 to 100% and the “M4 Activity” value is recorded as “+++ (activity was measured to be less than 1.0 μM)”.
Take `Cc1cc(C(=O)N2Cc3ccccc3C3(CCN(C4CC5CCC(C4)N5C(=O)O[C@@H]4CCOC4)CC3)C2)nn1C` (stereo partly drawn) [compound 351]: in experiment [1], the Emax was in the range of 25 to 100% and the “M1 Activity” value is on record as “+++ (activity was measured to be less than 1.0 μM)”. In experiment [2], the Emax fell in the range of 25 to 100% and the “M4 Activity” value is on record as “+++ (activity was measured to be less than 1.0 μM)”.
Consider `O=C1NC2(CCN(CC3CCOC3)CC2)c2ccccc21` (stereo not drawn) [compound 352], for which, in experiment [1], the Emax is less than 25% and the “M1 Activity” value is “+ (activity was measured to be greater than 5.0 μM)”. In experiment [2], the Emax is less than 25% and the “M4 Activity” value is recorded as “+ (activity was measured to be greater than 5.0 μM)”.
